Assay results reported in patent publication US8921082B2, “Method for producing xylitol from lignocellulosic hydrolysates without detoxification” (priority 2009, dated 2014).

Tested on: Candida sp. strain
Test: Tolerance of the strain Candida sp. to furfural (xylose fermentation with furfural added)
Type: cell-based
Protocol: The fermentation medium contained 97 g/L sterilized synthetic xylose solution with furfural in a concentration range of 1-3 g/L added. The fermentation temperature is controlled at 30° C., the agitation of the incubator is maintained at 150 rpm, and the ratio of the inocula size of the culture and the volume of the fermentation medium is 1:6 (v/v).

For O=Cc1ccco1 [furfural], the “tolerance of the strain to furfural” value (97 g/L synthetic xylose solution, furfural 1-3 g/L added, 30° C., 150 rpm) was “higher than 3 g/L”, the xylitol yield (furfural 1-3 g/L in 97 g/L synthetic xylose solution) was “higher than 0.7 g/g” and the “xylose fermentation capacity of the strain” value (furfural 3 g/L, 97 g/L synthetic xylose solution, compared with no furfural) was “the same as that without furfural”.
